Where a SMILES comes first, the peptide text is derived from it. The star is where a group is joined. Palmitoyl = CCCCCCCCCCCCCCCC(=O)*
Experiment: Solubilization of each lyophilized lipopeptide in pure acetic acid
Format: physicochemical
Conditions: pure acetic acid added to obtain 12.5 mg net/ml; before sonication
Method: Each lipopeptide is then solubilized by adding pure acetic acid to obtain a concentration of 12.5 mg net/ml. […] If the aggregates are not dissociated, the sonication is continued, separating each period of sonication (30 s) by 30 s gaps of no sonication, during which the bottles are shaken manually. At the end of the sonication step, the suspensions should be homogeneous (but will not be clear). Each lipopeptide is then diluted by adding water for injectable preparation. If the solution obtained is not totally clear, steps of heating in a water bath (at 40° C.±2° C.) and sonication (1 min maximum) may be carried out, separating them by 30 s gaps of no sonication. The final preparation is obtained by mixing the lipopeptides in equal weight amounts, adding them in the following order (the most hydrophilic to the most hydrophobic lipopeptides):

For `CCCCCCCCCCCCCCCC(=O)NCCCC[C@H](NC(=O)[C@H](CC(C)C)NC(=O)[C@H](CCCCN)NC(=O)[C@H](Cc1ccc(O)cc1)NC(=O)[C@H](CC(C)C)NC(=O)[C@H](Cc1c[nH]c2ccccc12)NC(=O)CNC(=O)[C@H](Cc1ccccc1)NC(=O)[C@@H](NC(=O)[C@H](CC(C)C)NC(=O)[C@@H]1CCCN1C(=O)[C@H](Cc1ccc(O)cc1)NC(=O)[C@H](CCCNC(=N)N)NC(=O)[C@@H](NC(=O)CNC(=O)[C@@H]1CCCN1C(=O)CNC(=O)[C@@H]1CCCN1C(=O)[C@@H](NC(=O)[C@H](Cc1ccc(O)cc1)NC(=O)[C@H](CC(N)=O)NC(=O)[C@H](CCC(N)=O)NC(=O)[C@H](Cc1c[nH]c2ccccc12)NC(=O)[C@H](CC(=O)O)NC(=O)[C@@H]1CCCN1C(=O)[C@H](Cc1ccccc1)NC(=O)[C@H](Cc1ccc(O)cc1)NC(=O)CNC(=O)[C@H](CCC(N)=O)NC(=O)[C@@H](NC(=O)[C@@H](N)Cc1c[nH]cn1)[C@@H](C)O)[C@@H](C)O)C(C)C)[C@@H](C)O)C(N)=O` [Nef 116] (H-HTQGYFPDWQNYTPGPGVRYPLTFGWLYKLK(Palmitoyl)-NH2; N-terminus assumed), the “solubility in pure acetic acid” value was “soluble”.
